One substance from patent publication US11504425B2, “Amphiphilic oligodeoxynucleotide conjugates as adjuvant enhancers” (WAYNE STATE UNIVERSITY, priority 2019, dated 2022) can be followed below.

Data set [1] deals with Murine splenocytes. Kind of data set: Cytokine secretion by murine splenocytes (ELISA). It counts as cell-based, mice. As to conditions: 2 μM IMQ + 1 μM ODN, 24 h. As for the experimental part: Spleens were freshly collected from mice and were cut into small pieces. A plunger end of a syringe was used to further disassemble spleen tissues into single cells. The cell suspension was subsequently filtered and washed. Lysing buffer was utilized to remove excessive red blood cells. After two washes, 95% viability of splenocytes was confirmed by trypan blue. Splenocytes were resuspended in RPMI-1640 supplemented with 10% FBS and 1% P/S. Splenocytes were seeded at 1×10^6 cells/ml in 200 μL in a 96-well plate.
Supernatants collected from splenocytes suspension or human PBMC suspension after incubation were separately analyzed for IL-6, IL-12p40, TNF-α, and IFN-α by ELISA following manufacturer's instructions.

Data set [2] deals with T1, mouse TLR8 (mTLR8) (Mus musculus, UniProt P58682).
T1 construct: host or cells: HEK-Blue-mTLR8 (HEK293)
T1 sequence (P58682 24-1032): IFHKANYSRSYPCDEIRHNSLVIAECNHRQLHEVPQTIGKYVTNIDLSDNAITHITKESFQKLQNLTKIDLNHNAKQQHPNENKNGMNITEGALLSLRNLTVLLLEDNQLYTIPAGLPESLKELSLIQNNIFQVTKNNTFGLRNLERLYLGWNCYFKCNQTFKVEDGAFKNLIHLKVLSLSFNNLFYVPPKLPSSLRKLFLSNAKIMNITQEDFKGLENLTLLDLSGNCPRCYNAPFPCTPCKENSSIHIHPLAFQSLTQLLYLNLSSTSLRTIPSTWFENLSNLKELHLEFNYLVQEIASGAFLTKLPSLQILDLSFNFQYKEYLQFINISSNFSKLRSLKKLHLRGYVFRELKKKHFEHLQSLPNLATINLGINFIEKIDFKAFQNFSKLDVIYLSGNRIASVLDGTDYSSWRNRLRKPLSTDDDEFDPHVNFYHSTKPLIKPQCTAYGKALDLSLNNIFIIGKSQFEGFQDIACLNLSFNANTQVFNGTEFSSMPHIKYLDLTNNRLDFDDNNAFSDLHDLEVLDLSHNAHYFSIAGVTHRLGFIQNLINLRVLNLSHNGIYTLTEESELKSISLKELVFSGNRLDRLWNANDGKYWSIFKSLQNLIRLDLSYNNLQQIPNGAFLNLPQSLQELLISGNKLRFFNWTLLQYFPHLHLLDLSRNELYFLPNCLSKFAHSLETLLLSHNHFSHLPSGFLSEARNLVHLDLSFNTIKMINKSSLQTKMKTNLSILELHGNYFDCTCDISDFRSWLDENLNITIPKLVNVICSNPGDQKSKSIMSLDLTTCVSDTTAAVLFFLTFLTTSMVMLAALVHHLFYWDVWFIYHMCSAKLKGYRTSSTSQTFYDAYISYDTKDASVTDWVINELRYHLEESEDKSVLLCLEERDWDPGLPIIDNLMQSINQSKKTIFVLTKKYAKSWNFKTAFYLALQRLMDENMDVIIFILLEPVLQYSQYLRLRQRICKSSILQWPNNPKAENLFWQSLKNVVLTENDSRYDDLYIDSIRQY
Kind of data set: HEK mTLR8 reporter cells NF-κB/SEAP. The class given is cell-based. To be noted: ligands at indicated concentrations + 1 μM ODN, 24 h. The procedure:
HEK-Blue™-mTLR7, mTLR8, hTLR7, hTLR8, and RAW-Blue™ cells were purchased from InvivoGen and were used to evaluate bioactivities of lipo ODNs and TLR 7/8 ligands in vitro. All these cell lines were cultured with DMEM supplemented with 10% FBS, 1% P/S and 100 μg/mL Normocin at 37° C. with 5% CO2. […] After incubating for 24 h, SEAP levels were quantified by developing supernatants with QuantiBlue™ substrate for 1 h and reading absorption at 620 nm, following manufacturer's instructions.
Raw Blue cells which respond to both murine TLR-7 and TLR-8 are also included to assess the overall modulatory effect. half-maximal effective concentration (EC50) and potency of several classic TLR7/8 ligands were evaluated in murine TLR7 and TLR8 reporter cells.

On to 5′-TTTTTTTTTTTTTTTTTTTT-3′ [T20], for which, in data set [1], the “IFN-α production induced by IMQ” value is recorded as “decreased the production of IFN-α”, the IL-6 production entry is listed as “significantly lower level of pro-inflammatory cytokines compared with IMQ alone”, the IL-12p40 production entry is given as “significantly lower level of pro-inflammatory cytokines compared with IMQ alone” and the TNF-α production result was “significantly lower level of pro-inflammatory cytokines compared with IMQ alone”. For the same substance, the “mTLR8 stimulation by IMQ, CL075, R848 in the presence of the ODN” value in data set [2] is reported as “increased the potency of TLR-8 stimulation”.
